These results are taken from patent US12421230B2, “Tricyclic heteroaryl compounds useful as IRAK4 inhibitors” (BRISTOL-MYERS SQUIBB COMPANY, priority 2020, dated 2025).

SMILES strings stand for the structures.

One experiment concerns the target T1, IRAK4 (Homo sapiens, UniProt Q9NWZ3).
T1 sequence (Q9NWZ3 1-460): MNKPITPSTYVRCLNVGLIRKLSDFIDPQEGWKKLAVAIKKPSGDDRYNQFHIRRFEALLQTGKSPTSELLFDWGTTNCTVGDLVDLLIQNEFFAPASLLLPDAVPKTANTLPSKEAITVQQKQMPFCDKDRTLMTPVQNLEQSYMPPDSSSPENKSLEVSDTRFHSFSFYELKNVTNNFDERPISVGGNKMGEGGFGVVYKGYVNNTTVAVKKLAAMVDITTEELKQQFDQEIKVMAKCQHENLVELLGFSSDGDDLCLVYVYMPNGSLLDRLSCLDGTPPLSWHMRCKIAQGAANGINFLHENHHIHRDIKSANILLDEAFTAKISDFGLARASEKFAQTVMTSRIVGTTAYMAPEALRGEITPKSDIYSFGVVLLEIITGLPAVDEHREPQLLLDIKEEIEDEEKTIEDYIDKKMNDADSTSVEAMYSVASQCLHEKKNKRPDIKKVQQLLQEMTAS
Nature of the experiment: IRAK4 Inhibition Assay. It is filed as biochemical. Conditions: ATP 500 μM; fluoresceinated peptide 1.5 μM; IRAK4 0.6 nM; 60 min room temperature; Caliper LABCHIP. As to the method:
The assays were performed in U-bottom 384-well plates. The final assay volume was 30 μL prepared from 15 μL additions of enzyme and substrates (fluoresceinated peptide and ATP) and test compounds in assay buffer (20 mM HEPES pH 7.2, 10 mM MgCl2, 0.015% Brij 35 and 4 mM DTT). The reaction was initiated by the combination of IRAK4 with substrates and test compounds. The reaction mixture was incubated at room temperature for 60 min. and terminated by adding 45 μL of 35 mM EDTA to each sample. The reaction mixture was analyzed on the Caliper LABCHIP® 3000 (Caliper, Hopkinton, MA) by electrophoretic separation of the fluorescent substrate and phosphorylated product. Inhibition data were calculated by comparison to no enzyme control reactions for 100% inhibition and vehicle-only reactions for 0% inhibition. The final concentrations of reagents in the assays are ATP, 500 μM; FL-IPTSPITTTYFFFKKK peptide 1.5 μM; IRAK4, 0.6 nM; and DMSO, 1.6%.

The next experiment deals with Human whole blood. Nature of the experiment: IRAK4 Whole Blood Assay. The conditions noted are these: stimulated with TLR2 agonist lipoteichoic acid 10 μg/mL for 5 hours, IL-6 levels. It is filed as cell-based. How it is done:
Human whole blood containing the anti-coagulant ACD-A was plated in 384-well plate (25 μL/well) and incubated with compounds for 60 minutes at 37° C. in a 5% CO2 incubator. The blood was stimulated with a TLR2 agonist, 10 μg/mL final concentration of lipoteichoic acid (Invivogen, San Diego, CA) in 25 μL RPMI (Gibco) for 5 hours in a 5% CO2 incubator. At the end of the incubation, plates were centrifuged at 2300 rpm for 5 minutes. Supernatants were harvested and analyzed for IL-6 levels by Flow Cytometry beads assay (BD Biosciences, San Jose, CA).

By IC50 is commonly meant the concentration that gives 50% inhibition. One may read the EC50 as the concentration at which the effect is half-maximal. Read a low EC50 as higher potency in that assay. Consider `CC(C)Nc1c(C(=O)NCCC(F)F)cnc2c1[nH]c1cc(C#N)ccc12` [Example 31, 7-cyano-N-(3,3-difluoropropyl)-4-(isopropylamino)-5H-pyrido[3,2-b]indole-3-carboxamide], for which the IC50 at IRAK4 was found to be 9.5 nM. Moreover, the 50% effective concentration (EC50) with Human whole blood is greater than 20000 nM.

In the case of `CC(C)Nc1c(C(=O)NCCC2CC2)cnc2c1[nH]c1cc(C#N)ccc12` [Example 34, 7-cyano-N-(2-cyclopropylethyl)-4-(isopropylamino)-5H-pyrido[3,2-b]indole-3-carboxamide], on IRAK4, the IC50 was determined as 3.4 nM. The compound also yielded a half-maximal effective concentration (EC50) in the experiment with Human whole blood of 580 nM.

Regarding `CC(C)Nc1c(C(=O)NCCN2CCOCC2)cnc2c1[nH]c1cc(C#N)ccc12` [Example 35, 7-cyano-4-(isopropylamino)-N-(2-morpholinoethyl)-5H-pyrido[3,2-b]indole-3-carboxamide], the IC50 on IRAK4 came to 3 nM. A half-maximal response with Human whole blood (EC50) required 770 nM.

For the compound `CC(C)(O)CCNC(=O)c1cnc2c([nH]c3cc(C#N)ccc32)c1NCC(F)F` [Example 36, 7-cyano-4-((2,2-difluoroethyl)amino)-N-(3-hydroxy-3-methylbutyl)-5H-pyrido[3,2-b]indole-3-carboxamide], the IC50 at IRAK4 came to 9.1 nM. In the experiment on Human whole blood, this compound registered an EC50 of 3320 nM.

Take `CC(C)Nc1c(C(=O)NCCC(C)(C)F)cnc2c1[nH]c1cc(C#N)ccc12` [Example 38, 7-cyano-N-(3-fluoro-3-methylbutyl)-4-(isopropylamino)-5H-pyrido[3,2-b]indole-3-carboxamide]: on IRAK4, the IC50 is 3.1 nM. This compound returned a half-maximal effective concentration (EC50) in the experiment on Human whole blood of 510 nM.

As to `CC(C)Nc1c(C(=O)N[C@H]2C[C@H](C(C)(C)O)C2)cnc2c1[nH]c1cc(C#N)ccc12` [Example 39, 7-cyano-N-((1R,3R)-3-(2-hydroxypropan-2-yl)cyclobutyl)-4-(isopropylamino)-5H-pyrido[3,2-b] indole-3-carboxamide], the half-maximal inhibitory concentration (IC50) on IRAK4 is 3.9 nM. For the same compound, the EC50 in the experiment with Human whole blood is greater than 20000 nM.

On to `CC(C)(O)CCNC(=O)c1cnc2c([nH]c3cc(C#N)ccc32)c1NC(C)(C)C` [Example 40, 4-(tert-butylamino)-7-cyano-N-(3-hydroxy-3-methylbutyl)-5H-pyrido[3,2-b]indole-3-carboxamide], for which the IC50 on IRAK4 was 6.3 nM. For the same compound, the EC50 with Human whole blood stood at 1600 nM.

On to `CC(C)Nc1c(C(=O)NCCC2(O)CC(F)(F)C2)cnc2c1[nH]c1cc(C#N)ccc12` [Example 43, 7-cyano-N-(2-(3,3-difluoro-1-hydroxycyclobutyl)ethyl)-4-(isopropylamino)-5H-pyrido[3,2-b]indole-3-carboxamide], for which, on IRAK4, the IC50 worked out at 2.5 nM. Also, the EC50 with Human whole blood was 740 nM.

Regarding `CC(C)(O)[C@H]1C[C@H](NC(=O)c2cnc3c([nH]c4cc(C#N)ccc43)c2NC2CC2)C1` [Example 44, 7-cyano-4-(cyclopropylamino)-N-((1R,3R)-3-(2-hydroxypropan-2-yl)cyclobutyl)-5H-pyrido[3,2-b]indole-3-carboxamide], the IC50 at IRAK4 came to 3.1 nM. In the experiment with Human whole blood, the EC50 came to 510 nM.

In the case of `CC(C)(O)CCNC(=O)c1cnc2c([nH]c3cc(C#N)ccc32)c1NC1CC1` [Example 46, 7-cyano-4-(cyclopropylamino)-N-(3-hydroxy-3-methylbutyl)-5H-pyrido[3,2-b]indole-3-carboxamide], the IC50 at IRAK4 was determined as 2.6 nM. Further, the EC50 in the experiment on Human whole blood was found to be 740 nM.

Consider `CC(C)Nc1c(C(=O)NCC(F)(F)CN)cnc2c1[nH]c1cc(C#N)ccc12` [Example 51, N-(3-amino-2,2-difluoropropyl)-7-cyano-4-(isopropylamino)-5H-pyrido[3,2-b]indole-3-carboxamide], for which the IC50 on IRAK4 is 16 nM. This compound also gave an EC50 in the experiment with Human whole blood of 1550 nM.

For `CC(C)(O)CCNC(=O)c1cnc2c([nH]c3cc(C#N)ccc32)c1N` [Example 54, 4-amino-7-cyano-N-(3-hydroxy-3-methylbutyl)-5H-pyrido[3,2-b] indole-3-carboxamide], the IC50 at IRAK4 turned out to be 14 nM. The EC50 in the experiment on Human whole blood is greater than 10000 nM.

As for `CCNc1c(C(=O)NCCC2CCCN2)cnc2c1[nH]c1cc(C#N)ccc12` (stereo not drawn) [Example 57, 7-cyano-4-(ethylamino)-N-(2-(pyrrolidin-2-yl)ethyl)-5H-pyrido[3,2-b]indole-3-carboxamide], at IRAK4, the IC50 was 18 nM. In addition, in the experiment with Human whole blood, the EC50 was 610 nM.

Consider `CC(C)Nc1c(C(=O)NCCC(C)(C)NC(=O)C2CC2)cnc2c1[nH]c1cc(C#N)ccc12` [Example 59, 7-cyano-N-(3-(cyclopropanecarboxamido)-3-methylbutyl)-4-(isopropylamino)-5H-pyrido[3,2-b]indole-3-carboxamide], for which, on IRAK4, the half-maximal inhibitory concentration (IC50) was determined as 5.4 nM. For the same compound, the 50% effective concentration (EC50) with Human whole blood was greater than 10000 nM.

With `CC(=O)NC(C)(C)CCNC(=O)c1cnc2c([nH]c3cc(C#N)ccc32)c1NC(C)C` [Example 60, N-(3-acetamido-3-methylbutyl)-7-cyano-4-(isopropylamino)-5H-pyrido[3,2-b]indole-3-carboxamide], on IRAK4, the IC50 came to 3.8 nM. In the experiment on Human whole blood, this compound returned an EC50 greater than 20000 nM.

Turning to `CC(C)Nc1c(C(=O)NCC2CCS(=O)(=O)C2)cnc2c1[nH]c1cc(C#N)ccc12` (stereo not drawn) [Example 61, 7-cyano-N-((1,1-dioxidotetrahydrothiophen-3-yl)methyl)-4-(isopropylamino)-5H-pyrido[3,2-b]indole-3-carboxamide], the half-maximal inhibitory concentration (IC50) at IRAK4 came to 7.2 nM. Moreover, the EC50 with Human whole blood was greater than 20000 nM.

As to `CC(C)Nc1c(C(=O)NCCN2CCS(=O)(=O)CC2)cnc2c1[nH]c1cc(C#N)ccc12` [Example 62, 7-cyano-N-(2-(1,1-dioxidothiomorpholino)ethyl)-4-(isopropylamino)-5H-pyrido[3,2-b]indole-3-carboxamide], on IRAK4, the half-maximal inhibitory concentration (IC50) was 3.3 nM. Besides, the response with Human whole blood was half-maximal at 12300 nM (EC50).

In the case of `CC(C)Nc1c(C(=O)NC2CCN(S(C)(=O)=O)CC2)cnc2c1[nH]c1cc(C#N)ccc12` [Example 63, 7-cyano-4-(isopropylamino)-N-(1-(methylsulfonyl)piperidin-4-yl)-5H-pyrido[3,2-b]indole-3-carboxamide], at IRAK4, the concentration for half-maximal inhibition (IC50) amounted to 7.1 nM. Further, in the experiment with Human whole blood, the EC50 is greater than 20000 nM.

As to `CC(C)Nc1c(C(=O)NC[C@@H](F)C(C)(C)O)cnc2c1[nH]c1cc(-c3cncs3)ccc12` [Example 66, (R)—N-(2-fluoro-3-hydroxy-3-methylbutyl)-4-(isopropylamino)-7-(thiazol-5-yl)-5H-pyrido[3,2-b]indole-3-carboxamide], on IRAK4, the IC50 is 8.6 nM. Moreover, in the experiment with Human whole blood, the EC50 worked out at 1240 nM.

As for `CC(C)Nc1c(-c2cn(CC3CC3)nn2)cnc2c1[nH]c1cc(C#N)ccc12` [Example 74, 3-(1-(cyclopropylmethyl)-1H-1,2,3-triazol-4-yl)-4-(isopropylamino)-5H-pyrido[3,2-b] indole-7-carbonitrile], the IC50 at IRAK4 was 9.2 nM. The compound further came in with an EC50 in the experiment on Human whole blood greater than 10000 nM.

With `CC(C)Nc1c(-c2cn(C3CCNCC3)nn2)cnc2c1[nH]c1cc(C#N)ccc12` [Example 75, 4-(isopropylamino)-3-(1-(piperidin-4-yl)-1H-1,2,3-triazol-4-yl)-5H-pyrido[3,2-b]indole-7-carbonitrile], the IC50 on IRAK4 came out at 1.5 nM. Further, the EC50 with Human whole blood is 930 nM.

On to `CC(C)Nc1c(-c2cc(C3CCNCC3)no2)cnc2c1[nH]c1cc(C#N)ccc12` [Example 76, 4-(isopropylamino)-3-(3-(piperidin-4-yl)isoxazol-5-yl)-5H-pyrido[3,2-b]indole-7-carbonitrile], for which the IC50 at IRAK4 was found to be 2.3 nM. For the same compound, the EC50 in the experiment on Human whole blood was determined as 820 nM.

Regarding `CC(C)Nc1c(-c2cc(C3CCOCC3)no2)cnc2c1[nH]c1cc(C#N)ccc12` [Example 77, 4-(isopropylamino)-3-(3-(tetrahydro-2H-pyran-4-yl)isoxazol-5-yl)-5H-pyrido[3,2-b]indole-7-carbonitrile], the IC50 on IRAK4 stood at 11 nM. Further, in the experiment on Human whole blood, the response was half-maximal at 990 nM (EC50).

For `CC(C)Nc1c(-c2cc(C3CCCCN3)no2)cnc2c1[nH]c1cc(C#N)ccc12` (stereo not drawn) [Example 80, 4-(isopropylamino)-3-(3-(piperidin-2-yl)isoxazol-5-yl)-5H-pyrido[3,2-b]indole-7-carbonitrile], the 50% inhibitory concentration (IC50) on IRAK4 was 18 nM. Moreover, the EC50 in the experiment on Human whole blood was found to be 3310 nM.
